Experimental data: US11312722B2, “Hsp90 inhibitors and uses thereof” (TRUSTEES OF BOSTON UNIVERSITY, priority 2019, dated 2022)

Assays:
[1] = target: Hsp90 (C. neoformans whole cell lysate) (Cryptococcus neoformans, UniProt J9VVA4); type: binding; settings: for C. neo Active (biochemical): Yes/No call; for EC50: read-out: C. neo EC50
Method: (§1) All analogs were assessed for Hsp90 binding affinity using a fluorescence polarization (FP)-based equilibrium competition assay in fungal and human whole cell lysates. […] Using lysates, the relative potency and selectivity for fungal Hsp90 was measured versus the entire ensemble of human Hsp90 isoforms in microplate format using small amounts of test materials. […] Thermal shift assays were performed under saturating ligand conditions, i.e. equimolar concentrations (10 μM) of protein and ligand. As a result, they provided qualitative evidence of target binding, but not a quantitative measurement of ligand affinity. For quantitation, a ligand dissociation constant (Ki) for key compounds was also determined using purified NBDs in FP assays and KD measurements were made by surface plasmon resonance (SPR) using a Biacore instrument. Finally, all analogs were assessed for whole cell antifungal activity against the pathogens C. albicans and C. neoformans.
(§2) FP assays. Whole cell lysates were prepared for FP assays as described previously. Total protein concentration of human and yeast lysates was determined by Bradford assay. […] Serial dilutions of test Hsp90 inhibitors were then assayed under these same conditions to monitor loss of fluorescence polarization as an indicator of probe displacement from Hsp90. […] Titrations of test compound in 25 μL of binding buffer (supplemented with 0.1 mg/mL bovine gamma globulin), were mixed with an equal volume of freshly prepared whole-cell lysate spiked with Cy3-GdA (0.1 nM). Plates were incubated at room temperature for 4.5 h to achieve equilibrium binding for the geldanamycin-based probe. […] Non-linear 4-parameter curve fitting of raw displacement data was performed in GraphPad Prism 5.0 to determine EC50 values as a measure of relative Hsp90-binding affinity. Results were normalized to the value determined for GdA in lysate of each cell type.
(§3) Statistical methods. […] In calculating the error of selectivity determinations, the fractional error of measurements in each species was summed to yield a composite error for the derived ratio.

[2] = system: Hsp90 (C. neoformans whole cell lysate); type: binding; settings: Yes/No call
Method: as §1, §2, §3

[3] = target: T1, C. neoformans Hsp90 NBD (Cryptococcus neoformans, UniProt J9VVA4); assay: FP assay with purified C. neoformans Hsp90 NBD (Ki); type: binding; settings: for C. neo Selectivity (FS): C. neo FS calculated using Ki
Method: Thermal shift assays were performed under saturating ligand conditions, i.e. equimolar concentrations (10 μM) of protein and ligand. As a result, they can provide only qualitative evidence of target binding, but not a quantitative measurement of ligand affinity. […] Titrations of the Cy3-GdA probe and purified proteins were evaluated to define assay conditions and to determine the dissociation constant Kd of the probe for each NBD. Serial dilutions of test Hsp90 inhibitors were then assayed in triplicate wells under these conditions. Non-linear 4-parameter curve fitting of raw displacement data was performed in GraphPad Prism 5.0 to determine IC50 values. Finally, inhibitory constants (Ki) were calculated as described previously.
NBD expression and purification. Recombinant Hsp90 NBDs were expressed and purified as previously described. Stock protein solutions in 50% glycerol were stored at −20° C. until dilution into relevant buffers and use for FP and thermal shift assays.

[4] = system: Hsp90 (C. albicans whole cell lysate); assay: biochemical; type: binding; settings: for C. alb Selective: Yes/No call
Outline: (§4)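 In this fluorescence polarization competition assay, compound titrations in buffer with 0.1 mg/mL bovine gamma globulin were mixed with fungal whole-cell lysate spiked with 0.1 nM Cy3-geldanamycin probe. Plates were incubated 4.5 h at room temperature. EC50 came from 4-parameter fits of probe displacement, normalized to GdA in the same lysate.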

[5] = target: Hsp90 (C. albicans whole cell lysate) (Candida albicans (strain SC5314 / ATCC MYA-2876) (Yeast), UniProt P46598); assay: biochemical; type: binding; settings: for C. alb Active (biochemical): Yes/No call; for EC50: read-out: C. alb EC50
Outline: as §4

[6] = system: C. neoformans (Strain H99); assay: Antifungal sensitivity testing (MIC), C. neoformans H99; type: cell-based; settings: for C. neo Active (cells): Yes/No call; for MIC80 / MIC90: Cryptococcus neoformans; for MIC80: read-out: C. neo MIC80; for MIC90: read-out: C. neo MIC90
[7] = target: T1, C. neoformans Hsp90 NBD; assay: Protein thermal shift assay, C. neoformans Hsp90 NBD; type: binding; settings: equimolar protein and ligand (10 μM)
Method: […]. Using recombinant proteins, assay-independent nanomolar inhibitory constants (Ki) were defined for these compounds. Binding of the compounds to their relevant NBD by thermal shift denaturation assays was also confirmed. Thermal shift assays were performed under saturating ligand conditions, i.e. equimolar concentrations (10 μM) of protein and ligand. As a result, they can provide only qualitative evidence of target binding, but not a quantitative measurement of ligand affinity. […] […]. C. neoformans or C. albicans Hsp90 NBD was combined with equimolar concentrations of the indicated bioactive inhibitors (10 μM) or DMSO control, in technical triplicates. The protein was heated from 25 to 98.6° C. at 0.2° C./5 s in the presence of Sypro Orange dye. All compounds induce an increase in melting temperature relative to the DMSO control, reported as ΔTm.
Protein thermal shift assays. Thermal melting curves were determined using a Protein Thermal Shift Kit (ThermoFisher #4462263), employing a CFX384 Real-Time PCR System (Bio-Rad, C1000 Touch Thermal Cycler). Reactions were performed in a final volume of 10 μL, and contained purified C. albicans or C. neoformans Hsp90 NBD diluted to 250 μg/mL in Buffer HBS-P (GE Healthcare Life Sciences, 0.01 M HEPES pH 7.4, 0.15 M NaCl, 0.005% v/v Surfactant P20) with 10 μM synthetic analog or DMSO control, and 1× Sypro Orange dye solution. Samples were prepared in triplicate in 384-well white plates (Bio-Rad; HSP3805). The instrument was set to melt curve, step 1 (25° C., 2 min) and step 2 (ramp to 98.6° C., increasing 0.2° C. per 5 s cycle). The inflection point of each curve is defined as the protein melting temperature (Tm). Temperature shift, ΔTm, was recorded as the difference between the Tm of the fungal Hsp90 NBD with compound minus Tm of the protein without compound.

[8] = system: C. albicans clinical isolate (CaCi2); assay: Fungicidal activity: spotting of MIC cultures onto compound-free YPD agar; type: cell-based; settings: C. albicans CaCi2, spotted on YPD agar after 48 h exposure
Method: Color scale bar: no growth inhibition (green) to complete inhibition (black). Each shaded box represents the mean of technical duplicates. The experiment was repeated as an independent biological replicate to confirm results.
Each shaded box represents the mean of technical duplicates. Relative viable cell number was monitored by standard dye reduction assay after 3-hr incubation with resazurin at 37° C. FIG. 6B: Following exposure to compounds, aliquots of the culture in each well were spotted onto compound-free YPD agar and plates incubated at 30° C. for an additional 24 hours before imaging to assess viability. The entire experiment consisting of growth in liquid culture followed by spotting onto YPD agar was repeated once.
Antifungal sensitivity testing. […] Each compound was tested in duplicate in at least two independent experiments. […] Plates were photographed after 24 h of incubation at 30° C.

[9] = in vitro; settings: both, CD-1, mouse; for CLint scaled at 1 μM: liver microsomes
[10] = mouse liver microsomes; for % remaining at 15 min (NADPH-free): NADPH-free control; for % remaining at 15 min / % remaining at 60 min: with NADPH
[11] = target: T1, C. neoformans Hsp90 NBD; assay: biochemical; type: binding; settings: SPR, 25° C., read-out: Biacore KD
Method: SPR assays. For SPR experiments, Hsp90 NBD expression constructs were modified to encode a C-terminal AviTag™ for site-specific on-column biotinylation with a BirA biotin-ligase kit (Avidity LLC; BirA-500). SPR experiments were performed on a Biacore T200 instrument at 25° C. Biotinylated Hsp90 NBD was diluted to 40 μg/mL and immobilized on a streptavidin chip (Sensor Chip SA, GE Healthcare) at a density of 2000-2500 response units (RU) on the biosensor surface. […] Resulting sensorgrams were analyzed with a fit to a 1:1 binding model, using BIA evaluation software.

Hsp90 (C. neoformans whole cell lysate) (Cryptococcus neoformans, UniProt J9VVA4), sequence (J9VVA4 1-699): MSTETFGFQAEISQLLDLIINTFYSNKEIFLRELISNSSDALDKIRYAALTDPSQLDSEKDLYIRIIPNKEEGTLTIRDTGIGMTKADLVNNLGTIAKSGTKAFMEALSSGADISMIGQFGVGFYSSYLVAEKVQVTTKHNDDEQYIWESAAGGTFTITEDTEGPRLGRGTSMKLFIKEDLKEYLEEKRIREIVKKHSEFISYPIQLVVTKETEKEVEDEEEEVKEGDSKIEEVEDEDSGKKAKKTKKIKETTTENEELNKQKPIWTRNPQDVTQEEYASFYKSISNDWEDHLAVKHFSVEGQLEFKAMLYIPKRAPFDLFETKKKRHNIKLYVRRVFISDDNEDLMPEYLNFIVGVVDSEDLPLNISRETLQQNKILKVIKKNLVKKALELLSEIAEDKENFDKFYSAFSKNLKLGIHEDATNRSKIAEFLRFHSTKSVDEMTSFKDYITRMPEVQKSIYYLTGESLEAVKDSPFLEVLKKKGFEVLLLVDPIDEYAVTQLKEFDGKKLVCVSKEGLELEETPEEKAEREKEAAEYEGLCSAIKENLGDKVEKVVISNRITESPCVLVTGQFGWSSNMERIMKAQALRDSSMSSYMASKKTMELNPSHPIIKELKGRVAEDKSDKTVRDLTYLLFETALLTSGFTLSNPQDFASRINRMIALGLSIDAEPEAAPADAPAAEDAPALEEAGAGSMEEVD
T1 sequence (J9VVA4 1-699): as above

Row | Structure (SMILES) | EC50 [1] | C. neo Selectivity (FS) [3] | C. alb Selectivity (FS) [4] | C. alb Selective [4] | C. alb Active (biochemical) [5] | EC50 [5] | C. neo MIC80 [6] | C. neo MIC90 [6] | also measured
1 | COc1ccccc1-c1cc(Nc2cc(O)cc(O)c2C(=O)N2CC[C@H](NC(C)=O)C2)n(C)n1 [ACSM01348] | 620 nM | 107.7 | >5 | Yes | Yes | 2250 nM | >25 µM | >25 µM | C. neo Active (biochemical) [1]: Yes; C. neo selective [2]: Yes; C. neo Active (cells) [6]: No
2 | COc1ccccc1-c1cc(Nc2cc(O)cc(O)c2C(=O)N2CC[C@H](NC(C)=O)C2)n(C)n1 [ACSM01349] | 246 nM | 159.7 | 9.5 | Yes | Yes | 1210 nM | >25 µM | >25 µM | C. neo Active (biochemical) [1]: Yes; C. neo selective [2]: Yes; C. neo Active (cells) [6]: No
3 | COc1ccccc1-c1cc(Nc2cc(O)cc(O)c2C(=O)N2CC[C@@H](OC)C2)n(C)n1 [ACSM01350] | 106 nM | 259.7 | 9.2 | Yes | Yes | 233 nM | >25 µM | >25 µM | C. neo Active (biochemical) [1]: Yes; C. neo selective [2]: Yes; C. neo Active (cells) [6]: No
4 | COc1ccccc1-c1cc(Nc2cc(O)cc(O)c2C(=O)N2CC[C@H](OC)C2)n(C)n1 [ACSM01351] | 244 nM | 98 | 4.6 | No | Yes | 628 nM | >25 µM | >25 µM | 
5 | Cn1nc(-c2ccccc2)cc1Nc1cc(O)cc(O)c1C(=O)N1Cc2ccncc2C1 [BUCMD00467] | 151 nM | 57.3 | 0.4 | No | Yes | 1040 nM | >25 µM | >25 µM | 
6 | COc1ccc(Cn2nc(-c3ccccc3)cc2Nc2cc(O)cc(O)c2C(=O)N2Cc3ccccc3C2)cc1 [Compound 21, 4-(2,3-dihydro-1H-isoindole-2-carbonyl)-5-((1-((4-methoxyphenyl)methyl)-3-phenyl-1H-pyrazol-5-yl)amino)benzene-1,3-diol] |  |  |  |  |  |  |  |  | C. neoformans NBD ΔTm [7]: 14 °C; fungicidal activity in combination with fluconazole [8]: fungicidal activity in combination with fluconazole
7 | COc1ccc(Cn2ncc(C)c2Nc2cc(O)cc(O)c2C(=O)N2Cc3ccccc3C2)cc1 [Compound 41, 4-(2,3-Dihydro-1H-isoindole-2-carbonyl)-5-((1-((4-methoxyphenyl)methyl)-4-methyl-1H-pyrazol-5-yl)amino)benzene-1,3-diol] |  |  |  |  |  |  |  |  | fungicidal activity in combination with fluconazole [8]: fungicidal activity in combination with fluconazole
8 | Cc1cc(Nc2cc(O)cc(O)c2C(=O)N2Cc3ccccc3C2)n(Cc2ccccc2Cl)n1 [Compound 89, 5-((1-((2-Chlorophenyl)methyl)-3-methyl-1H-pyrazol-5-yl)amino)-4-(2,3-dihydro-1H-isoindole-2-carbonyl)benzene-1,3-diol] |  |  |  |  |  |  |  |  | C. neoformans NBD ΔTm [7]: 12 °C; fungicidal activity in combination with fluconazole [8]: fungicidal activity in combination with fluconazole
9 | COc1cccc(-c2cc(Nc3cc(O)cc(O)c3C(=O)N3Cc4cccnc4C3)n(C)n2)c1 [Compound 113, 5-((3-(3-Methoxyphenyl)-1-methyl-1H-pyrazol-5-yl)amino)-4-(5H,6H,7H-pyrrolo[3,4-b]pyridine-6-carbonyl)benzene-1,3-diol] |  |  |  |  | Yes |  |  |  | CLint scaled at 1 μM [9]: 1590 mL/min/kg; half-life ([9]; microsomes): 3.4 min; % remaining at 15 min (NADPH-free) [10]: 109.2%; % remaining at 15 min [10]: 4.9%; % remaining at 60 min [10]: 0%; Kd [11]: 67 nM; MIC80 [6]: > 25 µM; MIC90 [6]: > 25 µM
10 | COc1cccc(-c2cc(Nc3cc(O)cc(O)c3C(=O)N3Cc4cn[nH]c4C3)n(C)n2)c1 [Compound 114, 5-((3-(3-Methoxyphenyl)-1-methyl-1H-pyrazol-5-yl)amino)-4-(1H,4H,5H,6H-pyrrolo[3,4-c]pyrazole-5-carbonyl)benzene-1,3-diol] |  |  |  |  | Yes |  |  |  | CLint scaled at 1 μM [9]: 318 mL/min/kg; % remaining at 15 min (NADPH-free) [10]: 108.2%; % remaining at 15 min [10]: 40.1%; % remaining at 60 min [10]: 7.0%; Kd [11]: 22 nM; MIC80 [6]: > 25 µM; MIC90 [6]: > 25 µM
11 | Cn1nc(-c2ccc(C(F)(F)F)cc2)cc1Nc1cc(O)cc(O)c1C(=O)N1Cc2ccccc2C1 [Compound 124, 4-(2,3-Dihydro-1H-isoindole-2-carbonyl)-5-((1-methyl-3-(4-(trifluoromethyl)phenyl)-1H-pyrazol-5-yl)amino)benzene-1,3-diol] |  |  |  |  |  |  |  |  | Ki ([3]; FP, purified recombinant NBD): 190 nM; C. neoformans NBD ΔTm [7]: 1 °C
